Experimental data as given in the supplement of paper PMC10733146.

Columns and labels:
Experiment in all cases: viability relative to DMSO control (fraction); higher = less drug effect (more viable cells)
Conditions in all cases: 48 h
Bortezomib = compound: CC(C)C[C@H](NC(=O)[C@H](Cc1ccccc1)NC(=O)c1cnccn1)B(O)O [Bortezomib]
Outline: (§1)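 Primary mononuclear tumour cells (Ficoll-isolated from blood or bone marrow, or processed lymph node; fresh or cryopreserved) were plated at 4 × 10^4 cells per well in 384-well plates with pre-plated compounds at five concentrations, one well each. Medium was RPMI-1640 with penicillin/streptomycin, L-glutamine and human serum, at 37 °C and 5% CO2 for 48 h. Viability was read as CellTiter-Glo luminescence relative to the median of 16 inner DMSO wells.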

Quizartinib = compound: CC(C)(C)c1cc(NC(=O)Nc2ccc(-c3cn4c(n3)sc3cc(OCCN5CCOCC5)ccc34)cc2)no1 [Quizartinib]
Outline: as §1

Tozasertib = compound: Cc1cc(Nc2cc(N3CCN(C)CC3)nc(Sc3ccc(NC(=O)C4CC4)cc3)n2)n[nH]1 [Tozasertib]
Outline: as §1

Nilotinib = compound: Cc1cn(-c2cc(NC(=O)c3ccc(C)c(Nc4nccc(-c5cccnc5)n4)c3)cc(C(F)(F)F)c2)cn1 [Nilotinib]
Outline: as §1

EPZ-5676 = compound: CC(C)N(C[C@H]1O[C@@H](n2cnc3c(N)ncnc32)[C@H](O)[C@@H]1O)[C@H]1C[C@@H](CCc2nc3cc(C(C)(C)C)ccc3[nH]2)C1 [EPZ-5676]
Outline: as §1

Vincristine = compound: CC[C@]1(O)C[C@H]2CN(CCc3c([nH]c4ccccc34)[C@@](C(=O)OC)(c3cc4c(cc3OC)N(C=O)[C@H]3[C@@](O)(C(=O)OC)[C@H](OC(C)=O)[C@]5(CC)C=CCN6CC[C@]43[C@@H]65)C2)C1 [Vincristine]
Outline: as §1

ONO-4059 = compound: CC#CC(=O)N1CC[C@@H](n2c(=O)n(-c3ccc(Oc4ccccc4)cc3)c3c(N)ncnc32)C1 [ONO-4059]
Outline: as §1

8-Azaguanin = compound: Nc1nc2n[nH]nc2c(=O)[nH]1 [8-Azaguanin]
Outline: as §1

BEZ235 = compound: Cn1c(=O)n(-c2ccc(C(C)(C)C#N)cc2)c2c3cc(-c4cnc5ccccc5c4)ccc3ncc21 [BEZ235]
Outline: as §1

AG-221 (Enasidinib) = compound: CC(C)(O)CNc1nc(Nc2ccnc(C(F)(F)F)c2)nc(-c2cccc(C(F)(F)F)n2)n1 [AG-221 (Enasidinib)]
Outline: as §1

Carfilzomib = compound: CC(C)C[C@H](NC(=O)[C@H](CCc1ccccc1)NC(=O)CN1CCOCC1)C(=O)N[C@@H](Cc1ccccc1)C(=O)N[C@@H](CC(C)C)C(=O)[C@@]1(C)CO1 [Carfilzomib]
Outline: as §1

Pacritinib = compound: C1=N/C2=N/c3ccc(OCCN4CCCC4)c(c3)COC/C=C/COCc3cccc(c3)C(=C1)N2 [Pacritinib]
Outline: as §1

BI6727 = compound: CC[C@@H]1C(=O)N(C)c2cnc(Nc3ccc(C(=O)N[C@H]4CC[C@H](N5CCN(CC6CC6)CC5)CC4)cc3OC)nc2N1C(C)C [BI6727]
Outline: as §1

Nelarabine = compound: COc1nc(N)nc2c1ncn2[C@@H]1O[C@H](CO)[C@@H](O)[C@@H]1O [Nelarabine]
Outline: as §1

primary AML patient cells (S056)
viability (Bortezomib; 0.008 µM): 0.857
viability (Bortezomib; 0.04 µM): 0.959
viability (Bortezomib; 0.2 µM): 0.877
viability (Bortezomib; 1 µM): 0.945
viability (Bortezomib; 5 µM): 0.914
viability (Quizartinib; 0.016 µM): 0.476
viability (Quizartinib; 0.08 µM): 0.505
viability (Quizartinib; 0.4 µM): 0.494
viability (Quizartinib; 2 µM): 0.492
viability (Quizartinib; 10 µM): 0.376
viability (Tozasertib; 0.024 µM): 0.735
viability (Tozasertib; 0.12 µM): 0.621
viability (Tozasertib; 0.6 µM): 0.432
viability (Tozasertib; 3 µM): 0.515
viability (Tozasertib; 15 µM): 0.761
viability (Nilotinib; 0.016 µM): 1.05
viability (Nilotinib; 0.08 µM): 1.03
viability (Nilotinib; 0.4 µM): 1.08
viability (Nilotinib; 2 µM): 1.08
viability (Nilotinib; 10 µM): 1.14
viability (EPZ-5676; 0.0032 µM): 0.839
viability (EPZ-5676; 0.016 µM): 0.952
viability (EPZ-5676; 0.08 µM): 0.874
viability (EPZ-5676; 0.4 µM): 1.09
viability (EPZ-5676; 2 µM): 0.929
viability (Vincristine; 0.016 µM): 0.911
viability (Vincristine; 0.08 µM): 0.582
viability (Vincristine; 0.4 µM): 0.298
viability (Vincristine; 2 µM): 0.226
viability (Vincristine; 10 µM): 0.358
viability (ONO-4059; 0.0016 µM): 0.872
viability (ONO-4059; 0.008 µM): 0.836
viability (ONO-4059; 0.04 µM): 0.835
viability (ONO-4059; 0.2 µM): 1.09
viability (ONO-4059; 1 µM): 0.729
viability (8-Azaguanin; 0.032 µM): 0.91
viability (8-Azaguanin; 0.16 µM): 0.74
viability (8-Azaguanin; 0.8 µM): 0.357
viability (8-Azaguanin; 4 µM): 0.163
viability (8-Azaguanin; 20 µM): 0.0948
viability (BEZ235; 0.024 µM): 0.827
viability (BEZ235; 0.12 µM): 0.847
viability (BEZ235; 0.6 µM): 0.653
viability (BEZ235; 3 µM): 0.578
viability (BEZ235; 15 µM): 0.494
viability (AG-221 (Enasidinib); 0.024 µM): 0.744
viability (AG-221 (Enasidinib); 0.12 µM): 0.697
viability (AG-221 (Enasidinib); 0.6 µM): 0.787
viability (AG-221 (Enasidinib); 3 µM): 0.706
viability (AG-221 (Enasidinib); 15 µM): 0.728
viability (Carfilzomib; 0.00016 µM): 0.872
viability (Carfilzomib; 0.0008 µM): 0.983
viability (Carfilzomib; 0.004 µM): 0.119
viability (Carfilzomib; 0.02 µM): 0.0194
viability (Carfilzomib; 0.1 µM): 0.023
viability (Pacritinib; 0.024 µM): 0.77
viability (Pacritinib; 0.12 µM): 0.831
viability (Pacritinib; 0.6 µM): 0.988
viability (Pacritinib; 3 µM): 0.132
viability (Pacritinib; 15 µM): 0.0593
viability (BI6727; 0.024 µM): 0.864
viability (BI6727; 0.12 µM): 0.799
viability (BI6727; 0.6 µM): 0.744
viability (BI6727; 3 µM): 0.167
viability (BI6727; 15 µM): 0.101
viability (Nelarabine; 0.024 µM): 0.999
viability (Nelarabine; 0.12 µM): 1.03
viability (Nelarabine; 0.6 µM): 1.05
viability (Nelarabine; 3 µM): 0.98
viability (Nelarabine; 15 µM): 0.822

primary AML patient cells (S009)
viability (Bortezomib; 0.008 µM): 1.09
viability (Bortezomib; 0.04 µM): 1.05
viability (Bortezomib; 0.2 µM): 1.04
viability (Bortezomib; 1 µM): 1.03
viability (Bortezomib; 5 µM): 1.04
viability (Quizartinib; 0.016 µM): 0.937
viability (Quizartinib; 0.08 µM): 0.918
viability (Quizartinib; 0.4 µM): 0.849
viability (Quizartinib; 2 µM): 0.898
viability (Quizartinib; 10 µM): 0.896
viability (Tozasertib; 0.024 µM): 0.873
viability (Tozasertib; 0.12 µM): 0.805
viability (Tozasertib; 0.6 µM): 0.878
viability (Tozasertib; 3 µM): 0.999
viability (Tozasertib; 15 µM): 1.06
viability (Nilotinib; 0.016 µM): 1.05
viability (Nilotinib; 0.08 µM): 1.05
viability (Nilotinib; 0.4 µM): 1.08
viability (Nilotinib; 2 µM): 1.06
viability (Nilotinib; 10 µM): 1.02
viability (EPZ-5676; 0.0032 µM): 0.965
viability (EPZ-5676; 0.016 µM): 0.949
viability (EPZ-5676; 0.08 µM): 1.07
viability (EPZ-5676; 0.4 µM): 0.979
viability (EPZ-5676; 2 µM): 0.926
viability (Vincristine; 0.016 µM): 0.819
viability (Vincristine; 0.08 µM): 0.614
viability (Vincristine; 0.4 µM): 0.588
viability (Vincristine; 2 µM): 0.575
viability (Vincristine; 10 µM): 0.553
viability (ONO-4059; 0.0016 µM): 1.11
viability (ONO-4059; 0.008 µM): 1.04
viability (ONO-4059; 0.04 µM): 1.05
viability (ONO-4059; 0.2 µM): 1.09
viability (ONO-4059; 1 µM): 1.14
viability (8-Azaguanin; 0.032 µM): 1.1
viability (8-Azaguanin; 0.16 µM): 1.06
viability (8-Azaguanin; 0.8 µM): 0.877
viability (8-Azaguanin; 4 µM): 0.746
viability (8-Azaguanin; 20 µM): 0.639
viability (BEZ235; 0.024 µM): 1.03
viability (BEZ235; 0.12 µM): 0.917
viability (BEZ235; 0.6 µM): 0.89
viability (BEZ235; 3 µM): 0.555
viability (BEZ235; 15 µM): 0.213
viability (AG-221 (Enasidinib); 0.024 µM): 0.862
viability (AG-221 (Enasidinib); 0.12 µM): 0.903
viability (AG-221 (Enasidinib); 0.6 µM): 0.962
viability (AG-221 (Enasidinib); 3 µM): 1.03
viability (AG-221 (Enasidinib); 15 µM): 0.958
viability (Carfilzomib; 0.00016 µM): 1.04
viability (Carfilzomib; 0.0008 µM): 0.403
viability (Carfilzomib; 0.004 µM): 0.0935
viability (Carfilzomib; 0.02 µM): 0.0681
viability (Carfilzomib; 0.1 µM): 0.0679
viability (Pacritinib; 0.024 µM): 1.03
viability (Pacritinib; 0.12 µM): 1.05
viability (Pacritinib; 0.6 µM): 0.924
viability (Pacritinib; 3 µM): 0.473
viability (Pacritinib; 15 µM): 0.0416
viability (BI6727; 0.024 µM): 0.964
viability (BI6727; 0.12 µM): 0.84
viability (BI6727; 0.6 µM): 0.804
viability (BI6727; 3 µM): 0.514
viability (BI6727; 15 µM): 0.3
viability (Nelarabine; 0.024 µM): 0.884
viability (Nelarabine; 0.12 µM): 0.816
viability (Nelarabine; 0.6 µM): 0.773
viability (Nelarabine; 3 µM): 0.692
viability (Nelarabine; 15 µM): 0.549

primary ALL patient cells (S048)
viability (Bortezomib; 0.008 µM): 0.869
viability (Bortezomib; 0.04 µM): 0.969
viability (Bortezomib; 0.2 µM): 0.895
viability (Bortezomib; 1 µM): 0.96
viability (Bortezomib; 5 µM): 0.887
viability (Quizartinib; 0.016 µM): 0.872
viability (Quizartinib; 0.08 µM): 0.82
viability (Quizartinib; 0.4 µM): 0.877
viability (Quizartinib; 2 µM): 0.784
viability (Quizartinib; 10 µM): 0.792
viability (Tozasertib; 0.024 µM): 0.802
viability (Tozasertib; 0.12 µM): 0.731
viability (Tozasertib; 0.6 µM): 0.633
viability (Tozasertib; 3 µM): 0.539
viability (Tozasertib; 15 µM): 0.376
viability (Nilotinib; 0.016 µM): 1.1
viability (Nilotinib; 0.08 µM): 1.2
viability (Nilotinib; 0.4 µM): 1.06
viability (Nilotinib; 2 µM): 1.25
viability (Nilotinib; 10 µM): 1.11
viability (EPZ-5676; 0.0032 µM): 0.798
viability (EPZ-5676; 0.016 µM): 0.928
viability (EPZ-5676; 0.08 µM): 0.816
viability (EPZ-5676; 0.4 µM): 0.896
viability (EPZ-5676; 2 µM): 0.946
viability (Vincristine; 0.016 µM): 0.293
viability (Vincristine; 0.08 µM): 0.151
viability (Vincristine; 0.4 µM): 0.0999
viability (Vincristine; 2 µM): 0.0818
viability (Vincristine; 10 µM): 0.0695
viability (ONO-4059; 0.0016 µM): 0.999
viability (ONO-4059; 0.008 µM): 0.93
viability (ONO-4059; 0.04 µM): 0.981
viability (ONO-4059; 0.2 µM): 0.951
viability (ONO-4059; 1 µM): 0.995
viability (8-Azaguanin; 0.032 µM): 0.822
viability (8-Azaguanin; 0.16 µM): 0.76
viability (8-Azaguanin; 0.8 µM): 0.424
viability (8-Azaguanin; 4 µM): 0.377
viability (8-Azaguanin; 20 µM): 0.23
viability (BEZ235; 0.024 µM): 0.858
viability (BEZ235; 0.12 µM): 0.846
viability (BEZ235; 0.6 µM): 0.618
viability (BEZ235; 3 µM): 0.552
viability (BEZ235; 15 µM): 0.269
viability (AG-221 (Enasidinib); 0.024 µM): 0.627
viability (AG-221 (Enasidinib); 0.12 µM): 0.633
viability (AG-221 (Enasidinib); 0.6 µM): 0.834
viability (AG-221 (Enasidinib); 3 µM): 0.854
viability (AG-221 (Enasidinib); 15 µM): 1.02
viability (Carfilzomib; 0.00016 µM): 0.718
viability (Carfilzomib; 0.0008 µM): 0.0489
viability (Carfilzomib; 0.004 µM): 0.014
viability (Carfilzomib; 0.02 µM): 0.0161
viability (Carfilzomib; 0.1 µM): 0.0184
viability (Pacritinib; 0.024 µM): 0.907
viability (Pacritinib; 0.12 µM): 0.786
viability (Pacritinib; 0.6 µM): 0.603
viability (Pacritinib; 3 µM): 0.591
viability (Pacritinib; 15 µM): 0.0174
viability (BI6727; 0.024 µM): 0.866
viability (BI6727; 0.12 µM): 0.979
viability (BI6727; 0.6 µM): 0.908
viability (BI6727; 3 µM): 0.484
viability (BI6727; 15 µM): 0.138
viability (Nelarabine; 0.024 µM): 1.03
viability (Nelarabine; 0.12 µM): 1.04
viability (Nelarabine; 0.6 µM): 0.927
viability (Nelarabine; 3 µM): 0.82
viability (Nelarabine; 15 µM): 0.587
